Values after ≈ are worked out from the molar mass of the structure shown. Read-outs that look alike come from different tables or passages of the source.

The LC50 is the concentration that kills 50% of the test population. As usually defined, the mortality is the share of the test organisms that died.

One series deals with Aphis craccivora. Nature of the series: Insecticidal activity against aphids, dipping method. Type of series: in vivo. The settings on record: for LC50 / mortality at 500 µg/mL: Aphis craccivora; for mortality at 500 µg/mL: read-out: Aphis craccivora Mortality rate (%, 500 mg L^−1). As for the experimental part:
Aphids, which belong to the Homoptera and have piercing-sucking mouth parts, are a common pest for agricultural crops. Aphis craccivora was used as the subject, and a dipping method was employed for testing.
Testing method: Each sample was precisely weighed, and 2 mL of DMSO and 18 mL of water were added respectively; then, three drops of the emulsion agent 200I were added to form a testing liquid; a blank was also prepared by adding three drops of emulsion agent 220I to 2 mL of DMSO and 18 mL of water. Broad bean leaves adhered by a certain number of insects were immersed in the testing liquid for three to five seconds, then removed and air-dried; the insects were moved into a clean container together with feed, and the container was placed in a dry, thermostatic recovery room. After 24 hours, the number of dead insects was checked.

Series [1] has as its system Pseudaletia separata Walker. Nature of the series: Insecticidal activity against armyworms, leaf-dipping method. Type of series: in vivo. The settings on record: for LC50 / mortality at 500 µg/mL: Mythimna separata; for mortality at 500 µg/mL: read-out: Pseudaletia separata Walker Mortality rate (%, 500 mg L^−1). An excerpt:
Second instar Pseudaletia separata Walker larvae were used as the subjects and the dipping method was employed for testing.
Pseudaletia separata Walker, which is a very important lepidopterans pest of various grains, can be suitably used in various of applications, for example, in the study of toxicity, such as the stomach toxicity, contact poisoning, comprehensive and residual effects of insecticides, and other aspects of insect toxicology, as well as the screen test for new compounds. Pseudaletia separata Walker extermination activity was tested in accordance with a method reported in the literature.
Operation procedure of the leaf-dipping method: Each sample was precisely weighed, and 2 mL of DMSO and 18 mL of water were added respectively; and then, three drops of the emulsion agent 2001 (procured from Shanghai Nongyaochang Co., Ltd.) were added to form the test liquid. A blank was also formulated by adding three drops of the 2201 emulsion agent to 2 mL of DMSO and […]. Fresh corn leaves were torn into small pieces and immersed for about five seconds in the liquid, then removed, air-dried, and placed in a 100-mL jar. About 20 2nd instar larvae were introduced into the jar. The jar was closed using white gauze and a rubber band, and the larvae were fed with corn soaked with the liquid continuously. The mortality rate of the larvae was checked after five days. The requisite temperature was 22° C. to 27° C., humidity 70% to 80%. There was no need to correct the mortality rates for each treatment if the blank mortality rate was 5% or less; however, if the control mortality rate was 5% to 20%, Abbott's correction should be used for the mortality rates for each treatment. Abbott's formula: Corrected mortality rate=[(treated mortality rate−control mortality rate)/(100−control mortality rate)×100].

Series [2] has as its system Nilaparvata lugens susceptible strain. Nature of the series: Insecticidal activity against Nilaparvata lugens, micro-drip method, susceptible strain. Type of series: in vivo. The settings on record: for Magnitude of resistance / Relative toxicity / LD50 (ng/pest): susceptible strain; for Relative toxicity: relative to imidacloprid; for LD50 (ng/pest): topical micro-drip, 48 hours. On the procedure: (§1) Nilaparvata lugens, which belongs to the Homoptera and has piercing-sucking mouth parts, is a common pest for agricultural crops. Nilaparvata lugens was used as the subject, and the micro-drip measurement method reported by Nagata was employed for testing.
(§2) Operation procedure: Unmated winged females two to three days after eclosion were selected as the test subjects; the compounds were diluted in acetone to a series of concentrations. The insects were paralyzed by carbon dioxide, and the liquid (0.08 μL) was dripped onto the pronotum of the insects using a manual micro-dripper (Burkard Manufacturing Co., Ltd., Rickmansworth, UK). Each of the concentrations was used to treat about 30 insects in triplicate. Acetone was used as the control. The treated adult insects were cultured on rice seedlings grown without soil in an incubator (20×20×10 cm), where the temperature was controlled at 25±1° C. with 16/8 hours of light and dark cycle. The results were checked after 48 hours, and the LD50 was calculated using a standard probability analysis method.

The test system of series [3] is Nilaparvata lugens resistant strain. Nature of the series: Insecticidal activity against Nilaparvata lugens, micro-drip method, resistant strain. The class given is in vivo. The settings on record: for Magnitude of resistance: resistant strain versus susceptible strain; for Relative toxicity / LD50 (ng/pest): resistant strain; for Relative toxicity: relative to imidacloprid; for LD50 (ng/pest): topical micro-drip, 48 hours. On the procedure: as §1, §2

Series [4] deals with nicotinic acetylcholine receptors of Periplaneta americana. Nature of the series: Mechanism of action, electrophysiological testing on cockroach nAChRs. Type of series: cell-based. From the text: (§3) The compound (1a) was separately subjected to electrophysiological testing and isotope marker substitution testing.
In series [5] the test system is N1 α 1/β 2 receptors expressed by the oocytes. In words: Mechanism of action, electrophysiological testing on receptors expressed by oocytes. The class given is cell-based.
Excerpt: as §3

Where [6] appears, read: 24 h, read-out: Aphis craccivora LC50 (mmol L^−1).
[7] abbreviates: foliar, 120 h, read-out: Pseudaletia separata Walker LC50 (mmol L^−1).

Consider `O=[N+]([O-])C1=C2N(Cc3ccc(Cl)nc3)CCN2[C@@H]2CC[C@H]1O2` [Compound 1a, 9-((6-chloropyrid-3-yl)methyl)-4-nitro-8-oxa-10,11-dihydroimidazo-[2,3-a]-bicyclo-[3,2,1]-oct-3-ene], for which the 50% lethal concentration (LC50) was determined as 1.52 µg/mL (≈ 4.71 µM) in the series with Aphis craccivora (setting [6]), 1.52 µg/mL (≈ 4.71 µM) in the series with Aphis craccivora (read-out: LC50 against aphids), 12.5 µg/mL (≈ 38.7 µM) in series [1] (setting [7]) and 12.5 µg/mL (≈ 38.7 µM) in series [1] (read-out: LC50 against Pseudaletia separata Walker). For the same compound, the mortality at 500 µg/mL in the series on Aphis craccivora (24 h) stood at 100%; in series [1] (foliar, 120 h), 100%. Further, the “activity against susceptible Niloparvata lugens versus imidacloprid” value in series [2] is listed as “generally the same as that of imidacloprid”. The results for the Magnitude of resistance in series [2] and in series [3] were 1.00 and 6.64, respectively. The values for the Relative toxicity in series [2] and in series [3] were 1.77 and 50.00, respectively. Moreover, the entries for the “LD50 (ng/pest)” value in series [2] and in series [3] were 0.0742 ± 0.0106 ng/pest and 0.4925 ± 0.0811 ng/pest, respectively. Further, in series [3], the “activity against imidacloprid-resistant Niloparvata lugens versus imidacloprid” value came out at 50 times. Besides, the “mode of action on nicotinic acetylcholine receptor (nAChRs)” value in series [4] (conclusion from electrophysiological and isotope marker substitution testing) is “antagonist”. Moreover, the “agonistic action on nicotinic acetylcholine receptors of Periplaneta americana” value in series [4] (electrophysiological testing) is recorded as “no agonistic action”. Further, the “inhibition of the agonist response to acetylcholine” value in series [4] (receptor preparation not given) is reported as “can inhibit the agonist response to acetylcholine”. Also, in series [5], the “agonistic action on N1 α 1/β 2 receptors expressed by the oocytes” value is on record as “no agonistic action”.
In the case of `O=[N+]([O-])C1=C2N(Cc3cnc(Cl)s3)CCN2[C@@H]2CC[C@H]1O2` [Compound 1b, 9-((2-chlorothiazol-5-yl)methyl)-4-nitro-8-oxa-10,11-dihydroimidazo-[2,3-a]-bicyclo-[3,2,1]-oct-3-ene], the mortality at 500 µg/mL stood at 100% in the series on Aphis craccivora (24 h) and 100% in series [1] (foliar, 120 h).
As to `O=[N+]([O-])C1=C2N(Cc3ccccc3)CCN2[C@@H]2CC[C@H]1O2` [Compound 1c, 9-benzyl-4-nitro-8-oxa-10,11-dihydroimidazo-[2,3-a]-bicyclo-[3,2,1]-oct-3-ene], the mortality at 500 µg/mL in the series with Aphis craccivora (24 h) is 13.6%; in series [1] (foliar, 120 h), 0%.
`O=[N+]([O-])C1=C2N(Cc3ccc(Cl)cc3)CCN2[C@@H]2CC[C@H]1O2` [Compound 1d, 9-(4-chloro-benzyl)-4-nitro-8-oxa-10,11-dihydroimidazo-[2,3-a]-bicyclo-[3,2,1]-oct-3-ene]: the mortality at 500 µg/mL in the series with Aphis craccivora (24 h) was determined as 95.7%; in series [1] (foliar, 120 h) it was 0%.
As to `O=[N+]([O-])C1=C2N(Cc3ccc(Cl)nc3)CCN2[C@H]2CCC[C@@H]1O2` [Compound 2a, 10-((6-chloropyrid-3-yl)methyl)-4-nitro-9-oxa-11,12-dihydroimidazo-[2,3-a]-bicyclo-[3,3,1]-non-3-ene], the mortality at 500 µg/mL with Aphis craccivora (24 h) came out at 87.3%. Moreover, the mortality at 500 µg/mL in series [1] (foliar, 120 h) turned out to be 0%. In series [2], the Magnitude of resistance is on record as 1.00, the Relative toxicity is given as 0.32 and the “LD50 (ng/pest)” value turned out to be 4.1440 ± 0.6136 ng/pest. Further, in series [3], the Magnitude of resistance amounted to 4.58, the Relative toxicity was 1.17 and the “LD50 (ng/pest)” value amounted to 18.9795 ± 2.3501 ng/pest.
In the case of `O=[N+]([O-])C1=C2N(Cc3cnc(Cl)s3)CCN2[C@H]2CCC[C@@H]1O2` [Compound 2b, 10-((2-chlorothiazol-5-yl)methyl)-4-nitro-9-oxa-11,12-dihydroimidazo-[2,3-a]-bicyclo-[3,3,1]-non-3-ene], the mortality at 500 µg/mL came out at 98.2% in the series with Aphis craccivora (24 h) and 0% in series [1] (foliar, 120 h).
As to `O=[N+]([O-])C1=C2N(Cc3ccccc3)CCN2[C@H]2CCC[C@@H]1O2` [Compound 2c, 10-benzyl-4-nitro-9-oxa-11,12-dihydroimidazo-[2,3-a]-bicyclo-[3,3,1]-non-3-ene], the mortality at 500 µg/mL with Aphis craccivora (500 mg L^−1, dipping, after 24 hours) was determined as 55.6%; in series [1] (foliar, 120 h) it was 0%.
Turning to `O=[N+]([O-])C1=C2N(Cc3ccc(Cl)cc3)CCN2C2CCCC1O2` (stereo not drawn) [Compound 2d, 10-(4-chlorobenzyl)-4-nitro-9-oxa-11,12-dihydroimidazo-[2,3-a]-bicyclo-[3,3,1]-non-3-ene], the “Aphis craccivora Mortality rate (%, 500 mg L^−1)” value in the series on Aphis craccivora (in vivo) amounted to 38.9%. For the same compound, the “Pseudaletia separata Walker Mortality rate (%, 500 mg L^−1)” value in series [1] (in vivo) amounted to 0%.
As to `O=[N+]([O-])NC1=NCCN1Cc1ccc(Cl)nc1` [Imidacloprid, reference compound], the results for the LC50 (in the series with Aphis craccivora (setting [6]); in series [1] (setting [7])) were 8.93 µg/mL (≈ 34.9 µM) and 38.7 µg/mL (≈ 151 µM), respectively. The mortality at 500 µg/mL turned out to be 100% in the series on Aphis craccivora (24 h) and 100% in series [1] (foliar, 120 h). The Magnitude of resistance in series [2] is on record as 1.00; in series [3], 168.40. The Relative toxicity in series [2] and in series [3] was 1.00 in each case. Moreover, the “LD50 (ng/pest)” value in series [2] was found to be 0.1316 ± 0.0154 ng/pest; in series [3], 22.1614 ± 3.7522 ng/pest.

The record behind these values is US8809319B2, “Substituted 8-oxa-10,11-dihydroimidazo[2,3-a]bicyclo[3.2.1]oct-3-enes and use thereof as an insecticide” (priority 2009, dated 2014).
